# Measured values published in ChEMBL document CHEMBL3804786, “Novel 1,3-thiazolidin-4-one derivatives as promising anti-Candida agents endowed with anti-oxidant and chelating properties” (Eur J Med Chem, 2016).
# What was measured:
# [1] = Cytotoxicity against human Hep2 cells assessed as reduction in cell viability after 24 hrs by trypan blue exclusion assay; type: cell-based, HEp-2
# [2] = tested on: Escherichia coli; assay: Antibacterial activity against Escherichia coli after clinical isolate 18 to 22 hrs by broth microdilution method; type: functional
# [3] = Cytotoxicity against human Hep2 cells assessed as cell survival at 10 ug/ml after 24 hrs by trypan blue exclusion assay; type: cell-based, HEp-2; details: read-out: Survival
# [4] = tested on: Enterobacter sp.; assay: Antibacterial activity against Enterobacter spp. clinical isolate after 18 to 22 hrs by broth microdilution method; type: functional
# [5] = tested on: Klebsiella oxytoca; assay: Antibacterial activity against Klebsiella oxytoca clinical isolate after 18 to 22 hrs by broth microdilution method; type: functional
# [6] = Cytotoxicity against human Hep2 cells assessed as cell survival at 0.05 ug/ml after 24 hrs by trypan blue exclusion assay; type: cell-based, HEp-2; details: read-out: Survival
# [7] = tested on: Candida albicans; assay: Antifungal activity against Candida albicans clinical isolate after 24 hrs by broth microdilution method; type: functional
# [8] = tested on: Staphylococcus aureus; assay: Antibacterial activity against Staphylococcus aureus clinical isolate after 18 to 22 hrs by broth microdilution method; type: functional
# [9] = tested on: Staphylococcus warneri; assay: Antibacterial activity against Staphylococcus warneri clinical isolate after 18 to 22 hrs by broth microdilution method; type: functional
# [10] = tested on: Enterococcus faecalis; assay: Antibacterial activity against Streptococcus faecalis clinical isolate after 18 to 22 hrs by broth microdilution method; type: functional
# [11] = Antioxidant activity of the compound after 30 mins by CUPRAC method; type: physicochemical
# [12] = Antioxidant activity assessed as DPPH radical scavenging activity after 30 mins under dark conditions; type: physicochemical
# [13] = tested on: Candida tropicalis; assay: Antifungal activity against Candida tropicalis clinical isolate after 24 hrs by broth microdilution method; type: functional
# [14] = tested on: Nakaseomyces glabratus; assay: Antifungal activity against Candida glabrata clinical isolate after 24 hrs by broth microdilution method; type: functional
# [15] = Cytotoxicity against human Hep2 cells assessed as cell survival at 50 ug/ml after 24 hrs by trypan blue exclusion assay; type: cell-based, HEp-2; details: read-out: Survival
# [16] = tested on: Streptococcus sp. (viridans group); assay: Antibacterial activity against Streptococcus alpha-hemolyticus clinical isolate after 18 to 22 hrs by broth microdilution method
# [17] = Antioxidant activity of the compound after 30 mins by FRAP assay; type: physicochemical
# [18] = Antioxidant activity assessed as ABTS radical scavenging activity after 30 mins under dark conditions; type: physicochemical
# [19] = tested on: Candida parapsilosis; assay: Antifungal activity against Candida parapsilosis clinical isolate after 24 hrs by broth microdilution method; type: functional; details: Lodderomyces parapsilosis
# [20] = Antioxidant activity of the compound after 90 mins by phosphomolybdenum assay; type: physicochemical
# [21] = Metal chelating activity of the compound assessed as ferrous ion complex formation after 10 mins; type: physicochemical
# [22] = Cytotoxicity against human Hep2 cells assessed as cell survival at 0.5 ug/ml after 24 hrs by trypan blue exclusion assay; type: cell-based, HEp-2; details: read-out: Survival
# [23] = Cytotoxicity against human Hep2 cells assessed as cell survival at 5 ug/ml after 24 hrs by trypan blue exclusion assay; type: cell-based, HEp-2; details: read-out: Survival
# [24] = tested on: [Candida] sake; assay: Antifungal activity against Candida sake clinical isolate after 24 hrs by broth microdilution method; type: functional; details: Fermentozyma sake
# [25] = tested on: Pichia kudriavzevii; assay: Antifungal activity against Candida krusei clinical isolate after 24 hrs by broth microdilution method; type: functional
# [26] = tested on: Proteus mirabilis; assay: Antibacterial activity against Proteus mirabilis clinical isolate after 18 to 22 hrs by broth microdilution method; type: functional
SMILES,CC50 at 24 h [1] [µg/mL],MIC [2] [µg/mL],"viability at 24 h, 10 ug/ml [3] [%]",MIC [4] [µg/mL],MIC [5] [µg/mL],"viability at 24 h, 0.05 ug/ml [6] [%]",MIC [7] [µg/mL],MIC [8] [µg/mL],MIC [9] [µg/mL],MIC [10] [µg/mL],EC50 [11] [µM],IC50 [12] [µM],MIC [13] [µg/mL],MIC [14] [µg/mL],"viability at 24 h, 50 ug/ml [15] [%]",MIC [16] [µg/mL],EC50 [17] [µM],IC50 [18] [µM],MIC [19] [µg/mL],EC50 [20] [µM],also measured
O=C1CS/C(=N\N=C2CCCC2)N1Cc1ccccc1F,11,> 256,37,> 256,> 256,82,2,> 256,> 256,> 256,2370,> 5000,2,2,0,> 256,5630,12400,2,700,"IC50 [21]: > 5000 µM; viability at 24 h, 0.5 ug/ml [22]: 69%; viability at 24 h, 5 ug/ml [23]: 52%; MIC [24]: 2 µg/mL; MIC [25]: 8 µg/mL; MIC [26]: > 256 µg/mL"
C/C(=N\N=C1/SCC(=O)N1Cc1cccc(Cl)c1)c1ccccn1,21,> 256,69,> 256,> 256,94,2,> 256,> 256,> 256,1400,> 5000,2,2,0,> 256,4930,26800,2,2040,"IC50 [21]: 2760 µM; viability at 24 h, 0.5 ug/ml [22]: 87.5%; viability at 24 h, 5 ug/ml [23]: 85%; MIC [24]: 16 µg/mL; MIC [25]: 4 µg/mL; MIC [26]: > 256 µg/mL"
C/C(=N\N=C1/SCC(=O)N1Cc1ccccc1F)c1cccs1,15,> 256,41,> 256,> 256,91,2,> 256,> 256,> 256,2400,> 5000,2,4,0,> 256,2130,15700,4,1260,"IC50 [21]: 3840 µM; viability at 24 h, 0.5 ug/ml [22]: 80%; viability at 24 h, 5 ug/ml [23]: 62%; MIC [24]: 2 µg/mL; MIC [25]: 4 µg/mL; MIC [26]: > 256 µg/mL"
C/C(=N/N=C1\SCC(=O)N1Cc1ccc(F)cc1)c1cccs1,15,> 256,52,> 256,> 256,83,2,> 256,> 256,> 256,1850,> 5000,2,2,0,> 256,2020,21500,4,1370,"IC50 [21]: 3900 µM; viability at 24 h, 0.5 ug/ml [22]: 76%; viability at 24 h, 5 ug/ml [23]: 68%; MIC [24]: 8 µg/mL; MIC [25]: 2 µg/mL; MIC [26]: > 256 µg/mL"
